Data set [1] deals with adult spider mites (Tetranychus cinnabarinus). Description: Test against adult spider mite, spray on bean leaves, mortality after 72 h. Format: in vivo. Particulars: for mortality at 0.63 ppm / mortality at 2.5 ppm / mortality at 5 ppm / mortality at 10 ppm / mortality at 1.25 ppm: Tetranychus cinnabarinus, read-out: Acaricidal activity against adult spider mites (mortality, %). Here is the method: (§1) According to the solubility of test compounds, the compounds are dissolved in acetone or dimethyl sulfoxide, and then diluted with 0.1% aqueous solution of Tween 80 to form 50 ml test liquid, the content of acetone or dimethyl sulfoxide in the total solution is not more than 10%.
The adult spider mites (Tetranychus cinnabarinus) were put into two true leaves of bean plants. After the number of mites were investigated, the solution of certain concentrations of test compounds was sprayed using a sprinkler and repeated three times. Then the leaves were maintained in standard observation room. After 72 h the survival mites in each leaf were observed, and mortality of the mites was determined.
According to above method, the representative compounds of this invention, compound KC, (compound 30 in JP2003201280A, E configuration), KC2 (compound 31 in JP2003201280A, Z configuration) and KC3 (compound 24 in CN101367784A) were chosen to parallel activity test against adult spider mites.

In data set [2] the test system is deutonymph of spider mite (Tetranychus cinnabarinus). Put plainly: Test against deutonymph of spider mite, spray, mortality after 72 h. Format: in vivo. Particulars: read-out: Acaricidal activity against deutonymph of spider mites (mortality, %). Here is the method:
as §1
Ten healthy female adult spider mites (Tetranychus cinnabarinus) were put into two true leaves of bean plants. The adult spider mites were removed after 24 h and the eggs were continued incubating. After ten days, the number of deutonymph were investigated and recorded. The solution of certain concentrations of test compounds was sprayed using a sprinkler and repeated three times. Then the deutonymph of spider mites were maintained in standard observation room. After 72 h, the survival mites in each leaf were observed, and mortality of the mites was determined.
According to above method, high acaricidal compound 5.1, 90.1 in present invention, and known high acaricidal compound KC1 were chosen to parallel activity test against deutonymph of spider mite.

The subject of data set [3] is egg of spider mite (Tetranychus cinnabarinus). Put plainly: Test against egg of spider mite, spray, incubation inhibition. Format: in vivo. Conditions: read-out: Acaricidal activity against eggs of spider mites (incubation inhibition rate, %). Here is the method:
as §1
Two true leaves of bean plants were taken and one true leaf was removed. Then ten healthy female adult spider mites were put into the true leaf. The adult spider mites were removed after 24 h and the eggs were investigated. The solution of certain concentrations of test compounds was sprayed using a sprinkler and repeated three times. The untreated eggs were all incubated after 5 days. The unincubation of treated eggs in leaf were observed, and incubation inhibition rate of the eggs were determined.
According to the above method, high acaricidal compound 5.1, 90.1 in present invention, and known high acaricidal compound KC1 were chosen to parallel activity test against eggs of spider mites.

Data set [4] concerns peach aphid (Myzus peisicae Sulzer). Put plainly: Test against peach aphid, spray on cabbage leaves, mortality after 72 h. Format: in vivo. Here is the method:
as §1
The cabbage leaves with peach aphids were taken and after the number of peach aphids were investigated, the solution of certain concentrations of test compounds was sprayed using a sprinkler and repeated three times. Then the leaves were maintained in standard observation room. After 72 h, the survival peach aphids were observed, and mortality of the peach aphids was determined.

The subject of a further data set is spider mites. Put plainly: Test of systemic activity against spider mite through root absorbtion. It counts as in vivo. Conditions: root dip 24 h, 72 h after infestation. The method, then: The test compounds are dissolved in acetone, and then diluted with 0.1% aqueous solution of Tween 80 to form test solution in different concentration and every treatment was repeated three times. Water is blank control. The 10 mL test compound solution was added into the tube. Two true leaves bean plants were taken and the soil in the root was removed. The bean plant was dipped into the test solution in different concentration. After absorbing 24 h, 30 to 50 spider mites were put onto the true leaves. Then the bean plants were maintained in observation room at 25±1° C. After 72 h, the death and survival mites in each leaf was observed, the mortality of the mites and systemic activity was determined.

For data set [5] the following is noted: in JP2003206280A; cited from earlier work.
In another data set the test system is spider mite. Particulars: 400 ppm, in CN101367784A; cited from earlier work.

Each structure is given as a SMILES string. Like-named read-outs stand apart in the source and are kept apart here.

Take `CCn1nc(C)cc1C(O)=C(C#N)c1ccc(C(C)(C)C)cc1` [Compound 1, 3-(1-ethyl-3-methylpyrazol-5-yl)-2-(4-tertbutylphenyl)-3-hydroxy-acrylonitrile]: the melting point is 70 to 72 °C.
With `CCn1nc(C)cc1C(OC(=O)C(C)(C)C)=C(C#N)c1ccc(C(C)(C)C)cc1` [Compound 5.1], in data set [1] (1.25 ppm, spray), the “Acaricidal activity against adult spider mites (mortality, %)” value (“Acaricidal activity … (mortality, %)” for short) amounted to 98%. Besides, the mortality at 0.63 ppm in data set [1] (0.63 ppm, spray) turned out to be 42%. The mortality at 2.5 ppm in data set [1] (2.5 ppm, spray) came out at 100%. The mortality at 5 ppm in data set [1] (5 ppm, spray) is 100%. In addition, the mortality at 10 ppm in data set [1] (10 ppm, spray) came out at 100%. For the same compound, in data set [2] (0.16 ppm, spray), the mortality at 0.16 ppm came out at 94%. In data set [2] (0.63 ppm, spray), the mortality at 0.63 ppm is 100%. Also, the mortality at 2.5 ppm in data set [2] (2.5 ppm, spray) is 100%. In data set [3], the inhibition at 2.5 ppm turned out to be 66%, the inhibition at 5 ppm turned out to be 100% and the inhibition at 10 ppm amounted to 100%.
Turning to `CCn1nc(C)cc1C(OC(=O)C(C)(C)C)=C(C#N)c1ccc(C(C)(C)C)cc1` [Compound 5.2], the “Acaricidal activity … (mortality, %)” value in data set [1] (0.63 ppm, spray) worked out at 56%; in data set [1] (1.25 ppm, spray) it was 65%; in data set [1] (2.5 ppm, spray) it was 87%; in data set [1] (5 ppm, spray) it was 100%; in data set [1] (10 ppm, spray), 100%.
As for `CCOC(=O)OC(=C(C#N)c1ccc(C(C)(C)C)cc1)c1cc(C)nn1CC` [Compound 17.1], the melting point was 96 to 97 °C.
`CCn1nc(C)c(C)c1C(O)=C(C#N)c1ccc(C(C)(C)C)cc1` [Compound 39, 3-(1-ethyl-3,4-dimethylpyrazol-5-yl)-2-(4-tertbutylphenyl)-3-hydroxyl-acrylonitrile] yielded a melting point of 86 to 88 °C.
Take `CCn1nc(C)c(C)c1C(OC(=O)C(C)(C)C)=C(C#N)c1ccc(C(C)(C)C)cc1` [Compound 42.1]: the “Acaricidal activity … (mortality, %)” value was found to be 20% in data set [1] (0.63 ppm, spray) and 93% in data set [1] (1.25 ppm, spray). In addition, the mortality at 2.5 ppm in data set [1] (2.5 ppm, spray) was determined as 100%. For the same compound, the mortality at 5 ppm in data set [1] (5 ppm, spray) came to 100%. For the same compound, the mortality at 10 ppm in data set [1] (10 ppm, spray) is 100%.
Consider `CCn1nc(C)c(C)c1C(OC(=O)C(C)(C)C)=C(C#N)c1ccc(C(C)(C)C)cc1` [Compound 42.2], for which the “Acaricidal activity … (mortality, %)” value in data set [1] (0.63 ppm, spray) came to 51%; in data set [1] (1.25 ppm, spray), 70%; in data set [1] (2.5 ppm, spray), 100%; in data set [1] (5 ppm, spray), 100%; in data set [1] (10 ppm, spray), 100%.
Turning to `CCn1nc(C)c(C)c1C(OC(=O)C1CC1)=C(C#N)c1ccc(C(C)(C)C)cc1` [Compound 44.2], in data set [1] (0.63 ppm, spray), the mortality at 0.63 ppm was 65%. Moreover, the mortality at 1.25 ppm in data set [1] (1.25 ppm, spray) amounted to 97%. The mortality at 2.5 ppm in data set [1] (2.5 ppm, spray) was 100%. Besides, the mortality at 5 ppm in data set [1] (5 ppm, spray) came out at 100%. In data set [1] (10 ppm, spray), the mortality at 10 ppm turned out to be 100%.
As for `CCn1nc(C)c(C)c1C(OC(=O)C1CCC1)=C(C#N)c1ccc(C(C)(C)C)cc1` [Compound 50.1], the mortality at 0.63 ppm in data set [1] (0.63 ppm, spray) came to 93%. For the same compound, the mortality at 1.25 ppm in data set [1] (1.25 ppm, spray) turned out to be 100%. In addition, the mortality at 2.5 ppm in data set [1] (2.5 ppm, spray) is 100%. Moreover, the mortality at 5 ppm in data set [1] (5 ppm, spray) is 100%. The mortality at 10 ppm in data set [1] (10 ppm, spray) turned out to be 100%.
`CCOC(=O)OC(=C(C#N)c1ccc(C(C)(C)C)cc1)c1c(C)c(C)nn1CC` [Compound 54.1]: the mortality at 1.25 ppm in data set [1] (1.25 ppm, spray) is 100%. For the same compound, in data set [1] (2.5 ppm, spray), the mortality at 2.5 ppm came out at 100%. For the same compound, in data set [1] (5 ppm, spray), the mortality at 5 ppm is 100%. The mortality at 10 ppm in data set [1] (10 ppm, spray) was 100%.
Regarding `CCn1nc(C)c(F)c1C(O)=C(C#N)c1ccc(C(C)(C)C)cc1` [Compound 81, 3-(1-ethyl-4-fluoro-3-methylpyrazol-5-yl)-2-(4-tertbutylphenyl)-3-hydroxy-acrylonitrile], the mortality at 600 ppm in data set [4] turned out to be 60%.
On to `CCn1nc(C)c(Cl)c1C(OC(=O)C(C)(C)C)=C(C#N)c1ccc(C(C)(C)C)cc1` [Compound 90.1], for which the “Acaricidal activity … (mortality, %)” value in data set [1] (0.63 ppm, spray) turned out to be 55%. In data set [1] (1.25 ppm, spray), the mortality at 1.25 ppm was determined as 100%. In addition, the mortality at 2.5 ppm in data set [1] (2.5 ppm, spray) was 100%; in data set [2] (2.5 ppm, spray), 100%. Further, the mortality at 5 ppm in data set [1] (5 ppm, spray) turned out to be 100%. Also, the mortality at 10 ppm in data set [1] (10 ppm, spray) came out at 100%. In addition, the mortality at 0.16 ppm in data set [2] (0.16 ppm, spray) was 82%. Further, in data set [2] (0.63 ppm, spray), the mortality at 0.63 ppm was found to be 90%. In addition, the inhibition at 2.5 ppm in data set [3] turned out to be 73%. Moreover, the inhibition at 5 ppm in data set [3] stood at 100%. Moreover, the inhibition at 10 ppm in data set [3] came out at 100%. The “Systemic activity against spider mites through root absorbtion (mortality, %)” value (“Systemic activity … (mortality, %)” for short) with spider mites (50 ppm) turned out to be 66%; in the data set with spider mites (100 ppm), 98%; in the data set with spider mites (200 ppm), 100%.
`CCn1nc(C)c(Cl)c1C(OC(=O)C(C)(C)C)=C(C#N)c1ccc(C(C)(C)C)cc1` [Compound 90.2]: the “Acaricidal activity … (mortality, %)” value in data set [1] (0.63 ppm, spray) is 28%; in data set [1] (1.25 ppm, spray), 100%; in data set [1] (2.5 ppm, spray), 100%; in data set [1] (5 ppm, spray) it was 100%; in data set [1] (10 ppm, spray) it was 100%.
For `CCOC(=O)OC(=C(C#N)c1ccc(C(C)(C)C)cc1)c1c(Cl)c(C)nn1CC` [Compound 101.1], the mortality at 1.25 ppm in data set [1] (1.25 ppm, spray) stood at 50%. For the same compound, in data set [1] (2.5 ppm, spray), the mortality at 2.5 ppm was determined as 91%. Also, the mortality at 5 ppm in data set [1] (5 ppm, spray) is 100%. In addition, in data set [1] (10 ppm, spray), the mortality at 10 ppm came out at 100%.
Take `Cc1nn(C)c(/C(OC(=O)C(C)(C)C)=C(\C#N)c2ccc(C(C)(C)C)cc2)c1C` [KC1, cyenopyrafen, reference compound]: in data set [1], the mortality at 1.25 ppm stood at 30%, the mortality at 2.5 ppm was determined as 85%, the mortality at 5 ppm came to 100% and the mortality at 10 ppm is 100%. Further, in data set [2], the mortality at 0.16 ppm turned out to be 20%, the mortality at 0.63 ppm turned out to be 70% and the mortality at 2.5 ppm turned out to be 82%. Besides, in data set [3], the inhibition at 2.5 ppm was 7%, the inhibition at 5 ppm came to 84% and the inhibition at 10 ppm was 100%. Also, in the data set with spider mites (50 ppm), the “Systemic activity … (mortality, %)” value was 0%. Moreover, the “Systemic activity … (mortality, %)” value in the data set with spider mites (100 ppm) is listed as 0%. For the same compound, in the data set with spider mites (200 ppm), the “Systemic activity … (mortality, %)” value was 0%. Besides, the “insecticidal and acaricidal activity” value in data set [5] was “good insecticidal and acaricidal activity”.
Consider `Cc1nn(C)c(/C(OC(=O)C(C)(C)C)=C(/C#N)c2ccc(C(C)(C)C)cc2)c1C` [KC2, reference compound], for which, in data set [1], the mortality at 1.25 ppm was 0%, the mortality at 2.5 ppm came out at 55%, the mortality at 5 ppm is 100% and the mortality at 10 ppm came to 100%.
Consider `CCc1nn(C)c(/C(OC(C)=O)=C(\C#N)c2ccc(C(C)(C)C)cc2)c1Cl` [KC3, reference compound], for which, in data set [1], the mortality at 10 ppm is 5%. Besides, the “mortality against spider mite” value in the data set on spider mite is listed as “more than 80%”.

In general, melting point refers to the temperature, or range, at which the solid turns liquid. For orientation: mortality means the share of the test organisms that died. The term inhibition denotes the relative decrease from the control value, in per cent.

The record behind these values is patent US8455532B2, “Pyrazolyl acrylonitrile compounds and uses thereof” (Shenyang Research Institute of Chemical Industry Co., Ltd., priority 2009, dated 2013).
